The test system of assay [1] is C-33A PIK3CA-mutated cervical cancer cell line. The assay is described as follows: CTG cell proliferation, C-33A. Type of assay: cell-based. The note with it: 72 hours, read-out: Absolute IC50. The text has this:
(§1) (2) Reagents • 1) FBS (fetal bovine serum) (purchased from ExCell, product number: FND500); • 2) RPMI1640 medium (purchased from Hyclone, product number: SH30809.01); • 3) McCoy's 5A medium (purchased from Gibco, product number: 12330-031); • 4) MEM medium (purchased from Hyclone, product number: SH30024.01; • 5) MEM NEAA (purchased from Gibco, product number: 11140-050); • 6) Sodium pyruvate (purchased from Gibco). (3) Test Article and Positive Control Article • Test article: compound I; Positive Control Article: • 1) Alpelisib, molecular weight: 441.47; solvent: DMSO; storage condition after dissolution: −20° C.; supplier: Shanghai TOPSCIENCE Biochemical Technology Co., Ltd., CAS number: 1217486-61-7; • 2) Cisplatin, molecular weight: 300.05; solvent: PBS (phosphate buffer saline); storage condition: 2-8° C.; supplier: Qilu Pharmaceutical. (4) The CTG Method was Used to Determine the Cell Proliferation IC50 of the Compound
(§2) Step 1: Cells in exponential growth phase were harvested, and viable cells were counted with a Vi-Cell XR cytometer. The cell suspension was adjusted to an appropriate concentration with medium. 90 μL of cell suspension was added to each well of a 96-well cell culture plate, and the final cell concentration was 1500-6000 cells/well. […]
(§3) Step 3: After 72 hours of drug treatment, 50 μL (½ culture volume) CTG solution that was melted and equilibrated to room temperature was added to each well according to the CTG operation instruction. […] After 10 minutes, the fluorescence signal value was measured with an Envision2104 plate reader.
(§4) Cell survival rate was calculated using the formula: Vsample/Vvehicle control×100%. Where, Vsample was the reading of the drug treatment group, and Vvehicle control was the average value of the solvent control group. GraphPad Prism 5.0 software was used, and a S-type dosage-survival rate curve was drawn using a nonlinear regression model and IC50 value was calculated.

Assay [2] deals with J82 PIK3CA-mutated bladder cancer cell line. Put plainly: CTG cell proliferation, J82. Type of assay: cell-based. The following applies: 72 hours, read-out: Absolute IC50. The text has this:
(§5) (2) Reagents • 1) FBS (fetal bovine serum) (purchased from ExCell, product number: FND500); • 2) MEM medium (purchased from Hyclone, product number: SH30024.01; • 3) MEM NEAA (purchased from Gibco, product number: 11140-050); • 4) Sodium pyruvate (purchased from Gibco). […] (4) The CTG Method was Used to Determine the Cell Proliferation IC50 of the Compound
(§6) Step 1: Cells in exponential growth phase were harvested, and viable cells were counted with a Vi-Cell XR cytometer. The cell suspension was adjusted to an appropriate concentration with medium. 90 μL of cell suspension was added to each well of a 96-well cell culture plate, and the final cell concentration was 1500-6000 cells/well.
(§7) Step 3: After 72 hours of drug treatment, 50 μL (½ culture volume) CTG solution that was melted and equilibrated to room temperature was added to each well according to the CTG operation instruction. The solution was mixed well with a microplate shaker for 2 minutes, and placed at room temperature. After 10 minutes, the fluorescence signal value was measured with an Envision2104 plate reader.
(§8) Cell survival rate was calculated using the formula: Vsample/Vvehicle control×100%. Where, Vsample was the reading of the drug treatment group, and Vvehicle control was the average value of the solvent control group.

The subject of assay [3] is TCCSUP PIK3CA-mutated bladder cancer cell line. The assay is described as follows: CTG cell proliferation, TCCSUP. Type of assay: cell-based. The note with it: 72 hours, read-out: Absolute IC50.
From the text: as §5, §6, §7, §8

Assay [4] relates to Ca Ski PIK3CA-mutated cervical cancer cell line. The assay is described as follows: CTG cell proliferation, Ca Ski. The assay is classed as cell-based. The note with it: 72 hours, read-out: Absolute IC50.
From the text: as §1, §2, §3, §4

In assay [5] the test system is BT-474 PIK3CA-mutated breast cancer cell line. The assay is described as follows: CTG cell proliferation, BT-474. The assay is classed as cell-based, human. The note with it: BT-474, CTG, 72 hours; read-out: Absolute IC50.
From the text: (§9) (2) Reagents • 1) FBS (fetal bovine serum) (purchased from ExCell, product number: FND500); • 2) DMEM medium (purchased from Gibco, product number: C11995500BT); • 3) Insulin (purchased from Gibco, product number: EPX010-12003-901); • 4) RPMI1640 medium (purchased from Hyclone, product number: SH30809.01); • 5) MEM medium (purchased from Hyclone, product number: SH30024.01). (3) Test Article and Positive Control Article • Test article: compound I; • Positive control article: Cisplatin, Molecular weight: 300.05; Solvent: PBS (phosphate buffer saline); Storage condition: 2-8° C.; Supplier: Qilu Pharmaceutical. (4) The CTG Method was Used to Determine the Cell Proliferation IC50 of the Compound.
as §6
(§10) Step 2: The initial concentration of administration of compound I was 3 μM, and the initial concentration of administration of the control drug Cisplatin was 100 μM, and serially diluted 3-fold, a total of 9 concentration gradients and a DMSO control, the final concentration of DMSO in each well was 0.1%, placed in a 37° C., 5% CO2 incubator for 72 hours.
as §3, §4

The subject of assay [6] is T47D PIK3CA-mutated breast cancer cell line. Put plainly: CTG cell proliferation, T47D. The assay is classed as cell-based. The note with it: 72 hours, read-out: Absolute IC50.
From the text: as §9, §6, §10, §3, §4

For assay [7], the system named is ME-180 PIK3CA-mutated cervical cancer cell line. The assay is described as follows: CTG cell proliferation, ME-180. Type of assay: cell-based. The following applies: ME-180, CTG, 72 hours, read-out: Absolute IC50.
From the text: as §1, §2, §3, §4

Assay [8] concerns human breast cancer BT-474 subcutaneous xenograft tumor. The assay is described as follows: In vivo efficacy, BT-474 subcutaneous xenograft tumor model. Also noted: species or system BALB/c nude mice. The following applies: for Tumor volume (Day 20): Mean ± SEM; for T/C / TGI: day 20. How it is done: Experimental purpose: Study the in vivo efficacy of the test drug on human breast cancer BT-474 subcutaneous xenograft tumor BALB/c nude mouse model.
(1) Cell culture: human breast cancer BT-474 cells were monolayer cultured in vitro. The culture conditions were that 10% fetal bovine serum, 100 U/ml penicillin (purchased from Gibco) and 100 μg/ml chain Mycin (purchased from Gibco) were added to Hybri-Care medium, and cultured at 37° C. and 5% CO2. Routine digestion and passage were performed with trypsin-EDTA (purchased from Gibco, product number: 25200-072) twice a week. When the cell saturation was 80%-90%, the cells are harvested, counted and inoculated.
(2) Animals: BALB/c nude mice, female, 6 weeks old, weighing 16-18 grams. Provided by Shanghai Sippe-Bk Lab Animal Co., Ltd.
(3) Control article: • Both PF05212384 and Everolimus were purchased from Shanghai TOPSCIENCE Biochemical Technology Co., Ltd.
(4) Tumor inoculation: 0.2 ml (1×10^7) BT-474 cells (matrigel was added, volume 1:1) were subcutaneously inoculated on the right back of each mouse, and the mice were divided into groups and administered with drugs when the average tumor volume reached 122 mm^3. See Table 10 below for the experimental grouping and dosing regimen.

Assay [9] has as its system PIK3CA-mutated cervical cancer cells. The assay is described as follows: CTG cell proliferation, cervical cancer cell lines. The assay is classed as cell-based. The note with it: across PIK3CA-mutated cervical cancer cell lines, 72 hours, Alpelisib: in two cell lines, read-out: half inhibitory concentration.
From the text: (2) Reagents • 1) FBS (fetal bovine serum) (purchased from ExCell, product number: FND500); • 2) RPMI1640 medium (purchased from Hyclone, product number: SH30809.01); • 3) McCoy's 5A medium (purchased from Gibco, product number: 12330-031); • 4) MEM medium (purchased from Hyclone, product number: SH30024.01; • 5) MEM NEAA (purchased from Gibco, product number: 11140-050); • 6) Sodium pyruvate (purchased from Gibco). […]
(§11) Step 1: Cells in exponential growth phase were harvested, and viable cells were counted with a Vi-Cell XR cytometer. […]
as §3, §4

In assay [10] the test system is HEC-1-A PIK3CA-mutated endometrial cancer cell line. The assay is described as follows: CTG cell proliferation, HEC-1-A. The assay is classed as cell-based. The following applies: read-out: Absolute IC50. The method, then:
(§12) (2) Reagents • 1) FBS (fetal bovine serum) (purchased from ExCell, product number: FND500); • 2) McCoy's 5A medium (purchased from Gibco, product number: 12330-031); • 3) MEM medium (purchased from Hyclone, product number: SH30024.01). (3) Test Article and Positive Control Article • Test article: compound I; • Positive control article: Alpelisib, molecular weight: 441.47; solvent: DMSO; storage condition after dissolution: −20° C.; supplier: Shanghai TOPSCIENCE Biochemical Technology Co., Ltd., CAS number: 1217486-61-7; (4) The CTG Method was Used to Determine the Cell Proliferation IC50 of the Compound
as §11, §3, §4

Assay [11] relates to HEC-1-B PIK3CA-mutated endometrial cancer cell line. Put plainly: CTG cell proliferation, HEC-1-B. Type of assay: cell-based. The following applies: read-out: Absolute IC50. The method, then:
as §12, §6
Step 2: The initial concentration of administration of compound I and the control drug Alpelisib was 3 μM, serially diluted 3-fold, a total of 9 concentration gradients and a DMSO control, the final concentration of DMSO in each well was 0.1%, placed in a 37° C., 5% CO2 incubator for 72 hours.
as §7, §4

Setting [12] is: 20 mg/kg, vein, once a week for 3 weeks, vs Solvent 1.
Where [13] appears, read: 5 mg/kg, oral, once a day for 20 days, vs Solvent 2.

As usually defined, the T/C is the ratio of treated to control.

Read-outs that look alike come from different tables or passages of the source.

As to `N.N.[Cl][Pt][Cl]` [Cisplatin], the IC50 is 3560 nM in assay [1]; 1730 nM in assay [2]; 3770 nM in [3]; 16200 nM in assay [4]; above 100000 nM in assay [5]; 36600 nM in [6]. Besides, the IC50 in [7] stood at 2830 nM.
For `CN(C)C1CCN(C(=O)c2ccc(NC(=O)Nc3ccc(-c4nc(N5CCOCC5)nc(N5CCOCC5)n4)cc3)cc2)CC1` [PF05212384, reference compound], the “Tumor volume (Day 20)” value in [8] (20 mg/kg, vein, once a week for 3 weeks) stood at 49 ± 6 mm^3. Besides, in [8] (setting [12]), the T/C came to 15% and the TGI stood at 134%.
In the case of `CO[C@H]1C[C@@H]2CC[C@@H](C)[C@@](O)(O2)C(=O)C(=O)N2CCCC[C@H]2C(=O)O[C@H]([C@H](C)C[C@@H]2CC[C@@H](OCCO)[C@H](OC)C2)CC(=O)[C@H](C)/C=C(\C)[C@@H](O)[C@@H](OC)C(=O)[C@H](C)C[C@H](C)/C=C/C=C/C=C/1C` [Everolimus, reference compound], the “Tumor volume (Day 20)” value in assay [8] (5 mg/kg, oral, once a day for 20 days) is on record as 82 ± 17 mm^3. In addition, in assay [8] (setting [13]), the T/C was 19% and the TGI amounted to 113%.
For the compound `Cc1nc(NC(=O)N2CCC[C@H]2C(N)=O)sc1-c1ccnc(C(C)(C)C(F)(F)F)c1` [Alpelisib], the IC50 in [1] (Homo sapiens) is above 3000 nM; in assay [9], above 3000 nM; in assay [10] (72 hours), 2460 nM; in assay [10] (Homo sapiens, 72 h), above 2000 nM; in assay [11] (72 hours) it was 2410 nM; in [11] (Homo sapiens, HEC-1B, 72 h), above 2000 nM. The figures for the IC50 in assay [4] (Homo sapiens) and in [7] (Homo sapiens) were above 3000 nM and 2070 nM, respectively.

For the origin of these results see US12622912B2, “Application of pyrido[1,2-a]pyrimidinone analog” (GUANGZHOU JOYO PHARMATECH CO., LTD, priority 2021, dated 2026).
